According to ChEMBL document CHEMBL5465560, “Selectivity Literature for EUbOPEN Chemogenomic Library” (2024):

Tests used:
[1] = target: Dual specificity mitogen-activated protein kinase kinase 2 (Homo sapiens) (UniProt P36507); assay: Selectivity interaction (ActivX KiNativ screen (kinase selectivity in THP-1 cell lysates)) EUB0000639a MAP2K2; format: subcellular; details: lysate
SRSF protein kinase 1 = SRSF protein kinase 1 (Homo sapiens, UniProt Q96SB4); assay: Selectivity interaction (ActivX KiNativ screen (kinase selectivity in THP-1 cell lysates)) EUB0000639a SRPK1; format: subcellular; details: lysate, at 1 µM
[2] = target: T1, Serine/threonine-protein kinase Nek2 (Homo sapiens) (UniProt P51955); assay: Selectivity interaction (ProQinase) EUB0000171b NEK2
T1 sequence (whole entry): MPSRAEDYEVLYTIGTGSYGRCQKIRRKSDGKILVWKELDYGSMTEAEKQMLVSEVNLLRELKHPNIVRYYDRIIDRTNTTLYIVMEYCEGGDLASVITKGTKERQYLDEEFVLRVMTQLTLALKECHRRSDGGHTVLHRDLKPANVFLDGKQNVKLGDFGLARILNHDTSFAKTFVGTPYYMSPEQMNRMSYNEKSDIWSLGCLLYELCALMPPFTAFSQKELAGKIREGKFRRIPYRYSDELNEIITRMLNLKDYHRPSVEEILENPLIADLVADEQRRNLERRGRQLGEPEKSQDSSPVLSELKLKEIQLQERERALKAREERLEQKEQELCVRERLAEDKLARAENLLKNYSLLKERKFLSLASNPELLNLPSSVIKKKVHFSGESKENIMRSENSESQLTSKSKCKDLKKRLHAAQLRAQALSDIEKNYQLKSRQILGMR

[3] = target: Wee1-like protein kinase (Homo sapiens) (UniProt P30291); assay: Selectivity interaction (KinomeScan (DiscoverX)) EUB0000695a WEE1; details: at 100 nM
[4] = target: Serine/threonine-protein kinase Nek6 (Homo sapiens) (UniProt Q9HC98); assay: Selectivity interaction (KinomeScan (DiscoverX)) EUB0000695a NEK6; details: at 100 nM
[5] = target: BMP-2-inducible protein kinase (Homo sapiens) (UniProt Q9NSY1); assay: Selectivity interaction (KinomeScan (DiscoverX)) EUB0000595a BMP2K; details: at 10 µM
[6] = target: T2, Serine/threonine-protein kinase ULK1 (Homo sapiens) (UniProt O75385); assay: Selectivity interaction (KinomeScan (DiscoverX)) EUB0001049a ULK1; details: at 1 µM
T2 sequence (whole entry): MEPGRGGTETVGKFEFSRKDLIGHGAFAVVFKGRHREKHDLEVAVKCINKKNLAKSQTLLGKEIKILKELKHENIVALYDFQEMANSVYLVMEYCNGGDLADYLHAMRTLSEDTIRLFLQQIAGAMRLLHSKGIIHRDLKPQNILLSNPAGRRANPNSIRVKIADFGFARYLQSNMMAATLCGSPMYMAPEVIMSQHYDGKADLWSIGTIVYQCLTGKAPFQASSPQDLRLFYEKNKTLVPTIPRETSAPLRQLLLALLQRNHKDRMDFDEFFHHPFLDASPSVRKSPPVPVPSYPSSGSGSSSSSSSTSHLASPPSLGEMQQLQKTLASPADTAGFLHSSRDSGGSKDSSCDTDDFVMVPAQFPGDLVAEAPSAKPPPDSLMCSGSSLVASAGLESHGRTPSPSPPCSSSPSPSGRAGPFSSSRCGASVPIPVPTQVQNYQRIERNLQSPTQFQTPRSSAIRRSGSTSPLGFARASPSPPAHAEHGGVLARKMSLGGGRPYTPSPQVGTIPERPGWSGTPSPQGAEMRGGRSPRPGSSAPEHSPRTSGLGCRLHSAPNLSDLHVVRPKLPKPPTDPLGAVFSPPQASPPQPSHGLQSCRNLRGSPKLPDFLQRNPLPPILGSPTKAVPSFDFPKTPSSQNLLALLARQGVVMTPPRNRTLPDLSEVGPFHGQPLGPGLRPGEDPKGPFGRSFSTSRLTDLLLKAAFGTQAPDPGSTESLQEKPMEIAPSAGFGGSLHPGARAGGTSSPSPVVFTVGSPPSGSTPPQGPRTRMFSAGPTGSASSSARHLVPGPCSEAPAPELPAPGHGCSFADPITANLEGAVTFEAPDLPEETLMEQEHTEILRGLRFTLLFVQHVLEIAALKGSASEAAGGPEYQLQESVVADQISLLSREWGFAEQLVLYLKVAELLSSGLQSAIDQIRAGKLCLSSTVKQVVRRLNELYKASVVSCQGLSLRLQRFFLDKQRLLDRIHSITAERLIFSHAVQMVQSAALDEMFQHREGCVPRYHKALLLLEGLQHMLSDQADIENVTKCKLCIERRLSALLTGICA

[7] = target: Serine/threonine-protein kinase 16 (Homo sapiens, UniProt O75716); assay: Selectivity interaction (KinomeScan (DiscoverX)) EUB0001079a STK16; details: at 1 µM
[8] = target: T3, Serine/threonine-protein kinase BRSK2 (Homo sapiens) (UniProt Q8IWQ3); assay: Selectivity interaction (KinomeScan (DiscoverX)) EUB0000229b BRSK2; details: at 10 µM
T3 sequence (whole entry): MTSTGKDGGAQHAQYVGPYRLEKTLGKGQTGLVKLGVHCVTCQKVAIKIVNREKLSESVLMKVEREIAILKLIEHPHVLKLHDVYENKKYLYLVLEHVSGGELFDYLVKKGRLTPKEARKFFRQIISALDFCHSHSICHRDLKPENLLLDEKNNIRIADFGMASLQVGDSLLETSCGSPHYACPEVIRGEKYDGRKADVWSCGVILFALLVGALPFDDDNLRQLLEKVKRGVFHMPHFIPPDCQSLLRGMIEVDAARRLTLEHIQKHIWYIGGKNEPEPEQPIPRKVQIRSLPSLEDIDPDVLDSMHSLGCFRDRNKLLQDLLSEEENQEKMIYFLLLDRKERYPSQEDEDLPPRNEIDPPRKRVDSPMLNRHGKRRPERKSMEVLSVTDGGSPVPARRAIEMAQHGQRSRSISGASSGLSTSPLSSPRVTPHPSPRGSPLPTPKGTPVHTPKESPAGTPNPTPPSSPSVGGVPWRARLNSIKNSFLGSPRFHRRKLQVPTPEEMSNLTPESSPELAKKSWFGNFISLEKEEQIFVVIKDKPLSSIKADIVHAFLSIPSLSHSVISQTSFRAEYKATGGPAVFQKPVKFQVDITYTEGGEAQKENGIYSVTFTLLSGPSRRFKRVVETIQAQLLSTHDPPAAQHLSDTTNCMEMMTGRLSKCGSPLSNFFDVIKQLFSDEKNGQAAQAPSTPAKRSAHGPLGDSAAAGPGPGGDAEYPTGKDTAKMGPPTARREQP

[9] = target: Dual specificity tyrosine-phosphorylation-regulated kinase 1A (Homo sapiens, UniProt Q13627); assay: Selectivity interaction (KinomeScan (DiscoverX)) EUB0000618a DYRK1A; details: at 10 µM
[10] = target: Protein-tyrosine kinase 6 (Homo sapiens, UniProt Q13882); assay: Selectivity interaction (KinomeScan (DiscoverX)) EUB0001619a PTK6; details: at 1 µM
Chain of Protein-tyrosine kinase 6 (Q13882 whole entry, looked up): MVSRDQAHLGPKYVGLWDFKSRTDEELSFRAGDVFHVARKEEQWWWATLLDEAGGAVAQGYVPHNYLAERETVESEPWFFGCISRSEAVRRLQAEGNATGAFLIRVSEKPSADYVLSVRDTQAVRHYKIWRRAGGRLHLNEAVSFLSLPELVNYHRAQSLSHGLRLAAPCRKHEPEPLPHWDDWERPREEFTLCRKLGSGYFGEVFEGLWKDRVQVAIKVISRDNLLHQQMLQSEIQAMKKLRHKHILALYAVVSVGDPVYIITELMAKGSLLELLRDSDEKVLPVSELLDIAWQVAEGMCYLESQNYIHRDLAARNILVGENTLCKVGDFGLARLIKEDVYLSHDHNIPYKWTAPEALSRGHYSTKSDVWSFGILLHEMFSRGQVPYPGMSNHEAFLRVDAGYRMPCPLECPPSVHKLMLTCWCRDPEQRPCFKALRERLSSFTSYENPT

Chain of Dual specificity mitogen-activated protein kinase kinase 2 (Homo sapiens) (P36507 whole entry): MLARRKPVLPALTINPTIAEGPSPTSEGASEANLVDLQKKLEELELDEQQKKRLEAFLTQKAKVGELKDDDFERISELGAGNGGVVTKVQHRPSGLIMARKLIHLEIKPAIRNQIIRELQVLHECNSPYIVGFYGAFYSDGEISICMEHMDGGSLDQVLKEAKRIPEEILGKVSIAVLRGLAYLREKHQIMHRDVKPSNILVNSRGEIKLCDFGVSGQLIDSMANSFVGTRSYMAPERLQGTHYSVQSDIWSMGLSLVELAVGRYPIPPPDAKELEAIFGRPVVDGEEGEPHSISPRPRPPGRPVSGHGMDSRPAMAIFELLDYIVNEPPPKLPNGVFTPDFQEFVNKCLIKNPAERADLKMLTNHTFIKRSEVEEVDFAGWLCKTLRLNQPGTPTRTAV
Chain of Serine/threonine-protein kinase 16 (O75716 whole entry): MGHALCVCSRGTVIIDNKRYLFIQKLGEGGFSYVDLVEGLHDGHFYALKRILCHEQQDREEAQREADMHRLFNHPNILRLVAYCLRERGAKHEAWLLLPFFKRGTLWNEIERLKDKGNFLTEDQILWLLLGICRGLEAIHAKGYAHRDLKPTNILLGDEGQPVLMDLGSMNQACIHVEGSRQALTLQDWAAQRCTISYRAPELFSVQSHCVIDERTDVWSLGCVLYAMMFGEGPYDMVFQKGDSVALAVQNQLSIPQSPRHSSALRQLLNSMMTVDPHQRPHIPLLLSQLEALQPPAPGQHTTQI
Chain of BMP-2-inducible protein kinase (Homo sapiens) (Q9NSY1 whole entry, looked up): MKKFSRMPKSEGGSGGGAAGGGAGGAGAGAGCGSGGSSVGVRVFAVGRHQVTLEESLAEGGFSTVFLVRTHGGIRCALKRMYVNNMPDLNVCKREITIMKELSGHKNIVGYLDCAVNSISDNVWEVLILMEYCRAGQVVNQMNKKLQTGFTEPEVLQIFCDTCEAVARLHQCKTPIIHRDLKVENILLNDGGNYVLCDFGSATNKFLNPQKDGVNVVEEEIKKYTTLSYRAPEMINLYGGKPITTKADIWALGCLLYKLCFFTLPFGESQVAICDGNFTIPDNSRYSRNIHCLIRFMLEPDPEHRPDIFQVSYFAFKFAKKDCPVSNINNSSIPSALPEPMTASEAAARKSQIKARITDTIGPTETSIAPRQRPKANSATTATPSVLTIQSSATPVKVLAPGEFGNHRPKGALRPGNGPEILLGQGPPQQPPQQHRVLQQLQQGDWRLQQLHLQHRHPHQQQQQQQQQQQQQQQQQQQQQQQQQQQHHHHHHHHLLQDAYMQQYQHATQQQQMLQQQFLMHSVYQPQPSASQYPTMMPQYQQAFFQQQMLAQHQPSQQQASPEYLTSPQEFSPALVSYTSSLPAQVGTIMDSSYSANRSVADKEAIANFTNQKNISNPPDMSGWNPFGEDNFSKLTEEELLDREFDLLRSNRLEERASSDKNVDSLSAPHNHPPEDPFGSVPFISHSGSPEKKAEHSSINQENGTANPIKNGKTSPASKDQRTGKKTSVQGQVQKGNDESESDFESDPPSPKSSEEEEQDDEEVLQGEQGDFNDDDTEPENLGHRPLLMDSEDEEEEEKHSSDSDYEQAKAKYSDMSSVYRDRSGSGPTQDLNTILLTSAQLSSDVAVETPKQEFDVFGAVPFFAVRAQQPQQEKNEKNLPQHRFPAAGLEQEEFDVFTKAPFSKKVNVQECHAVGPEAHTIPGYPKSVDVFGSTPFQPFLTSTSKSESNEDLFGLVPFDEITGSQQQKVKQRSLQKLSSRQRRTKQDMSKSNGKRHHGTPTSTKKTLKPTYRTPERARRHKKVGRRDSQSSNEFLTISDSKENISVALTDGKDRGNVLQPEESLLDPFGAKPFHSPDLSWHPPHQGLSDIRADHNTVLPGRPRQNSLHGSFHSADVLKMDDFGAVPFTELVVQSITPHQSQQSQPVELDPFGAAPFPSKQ
Chain of Wee1-like protein kinase (Homo sapiens) (P30291 whole entry, looked up): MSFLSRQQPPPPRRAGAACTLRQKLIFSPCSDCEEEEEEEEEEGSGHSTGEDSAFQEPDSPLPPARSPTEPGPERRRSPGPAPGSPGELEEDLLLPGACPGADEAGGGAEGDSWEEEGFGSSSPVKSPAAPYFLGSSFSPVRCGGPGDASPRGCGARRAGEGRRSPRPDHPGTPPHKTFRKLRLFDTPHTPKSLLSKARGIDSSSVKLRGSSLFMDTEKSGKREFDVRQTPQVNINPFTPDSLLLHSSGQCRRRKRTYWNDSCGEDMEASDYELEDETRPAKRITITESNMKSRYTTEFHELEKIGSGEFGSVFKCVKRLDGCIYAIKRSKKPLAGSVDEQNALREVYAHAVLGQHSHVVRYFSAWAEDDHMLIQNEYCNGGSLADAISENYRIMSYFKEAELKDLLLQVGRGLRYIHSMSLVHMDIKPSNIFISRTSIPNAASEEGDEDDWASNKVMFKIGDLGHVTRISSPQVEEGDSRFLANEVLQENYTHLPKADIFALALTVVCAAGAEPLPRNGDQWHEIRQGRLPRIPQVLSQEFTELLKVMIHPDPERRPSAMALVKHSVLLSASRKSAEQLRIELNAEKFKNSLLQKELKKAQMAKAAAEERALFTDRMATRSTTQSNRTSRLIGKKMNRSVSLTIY
Chain of SRSF protein kinase 1 (Q96SB4 whole entry): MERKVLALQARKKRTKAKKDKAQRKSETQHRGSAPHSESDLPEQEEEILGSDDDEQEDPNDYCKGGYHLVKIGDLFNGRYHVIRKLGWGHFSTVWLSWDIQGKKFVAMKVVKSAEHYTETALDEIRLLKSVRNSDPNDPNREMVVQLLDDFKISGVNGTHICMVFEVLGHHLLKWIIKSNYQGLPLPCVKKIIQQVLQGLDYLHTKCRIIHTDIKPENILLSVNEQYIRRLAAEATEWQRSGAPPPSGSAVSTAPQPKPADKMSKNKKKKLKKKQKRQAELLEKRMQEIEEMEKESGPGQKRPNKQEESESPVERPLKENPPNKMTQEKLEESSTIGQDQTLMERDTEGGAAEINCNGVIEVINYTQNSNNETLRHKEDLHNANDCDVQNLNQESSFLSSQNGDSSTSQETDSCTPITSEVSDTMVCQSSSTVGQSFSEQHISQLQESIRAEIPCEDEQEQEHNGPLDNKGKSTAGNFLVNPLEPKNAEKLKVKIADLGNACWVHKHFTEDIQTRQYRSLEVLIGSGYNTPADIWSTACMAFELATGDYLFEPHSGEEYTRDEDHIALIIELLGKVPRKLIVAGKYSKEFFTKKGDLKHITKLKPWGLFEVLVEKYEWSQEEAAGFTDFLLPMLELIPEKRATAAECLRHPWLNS
Chain of Serine/threonine-protein kinase Nek6 (Homo sapiens) (Q9HC98 whole entry): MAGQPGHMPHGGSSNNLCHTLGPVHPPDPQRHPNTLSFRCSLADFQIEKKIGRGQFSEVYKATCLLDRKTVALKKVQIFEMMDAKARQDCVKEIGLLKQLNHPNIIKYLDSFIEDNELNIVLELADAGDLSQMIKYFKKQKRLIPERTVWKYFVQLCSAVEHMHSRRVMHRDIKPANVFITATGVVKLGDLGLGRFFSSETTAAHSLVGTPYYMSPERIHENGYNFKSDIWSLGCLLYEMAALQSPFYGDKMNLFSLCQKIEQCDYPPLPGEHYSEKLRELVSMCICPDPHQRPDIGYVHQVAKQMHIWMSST

## CC[C@@H]1[C@H](F)C(=O)N[C@@H]1COc1nccc2cc(C(N)=O)c(OC)cc12 [ZIMLOVISERTIB]
[1]; at 0.01 µM
  % of inhibition: -25.6%
[1]; at 0.04 µM
  % of inhibition: -4.8%
[1]; at 0.2 µM
  % of inhibition: -3.6%
[1]; at 1 µM
  % of inhibition: 3.1%
[1]; at 5 µM
  % of inhibition: 18.5%
SRSF protein kinase 1
  % of inhibition: 0.5%

## C=CC(=O)Nc1cccc(C(=O)Nc2ccc(Nc3cc(-c4[nH]c(SC)nc4C)ccn3)cc2)c1
[2]; at 1 µM
  % of control: 92%
[2]; at 5 µM
  % of control: 78%

## Cc1cc(F)c(C(=O)Nc2cccc(-c3nncn3C(C)C)n2)cc1-n1cnc(C2CC2)c1
[3]
  % of control: 100%
[4]
  % of control: 100%

## COCC(=O)NC/C=C/c1ccc2ncnc(Nc3ccc(Oc4ccc(C)nc4)c(C)c3)c2c1 [CP-724714]
[5]
  % of control: 73%

## COc1cc(Nc2nc(C)cc(-c3cnn4nc(OC)ccc34)n2)cc(C(F)(F)F)c1
[6]
  % of control: 86%

## Nc1cnc(N2CCc3cc(S(=O)(=O)Nc4c(F)cc(Cl)cc4F)cc(N4CCCC4=O)c32)nc1 [TP-020n]
[7]
  % of control: 100%

## COc1cc(N(C)c2ccnc3ccc(C(F)(F)F)cc23)cc(OC)c1OC
[8]
  % binding: 90%

## O[C@H]1CC[C@H](Nc2ncc3nc(Nc4c(F)cc(F)cc4F)n([C@H]4CCOC4)c3n2)CC1
[9]
  % of control: 98%

## N#Cc1cccc(-c2c[nH]c3ncnc(N4CCOCC4)c23)c1
[10]
  % of control: 72%
